This note sets out measurements from patent US20120213789A1, “New Molecular Target for Treatment of Cancer” (priority 2001, published 2012).

In the assay the test system is LNCaP Prostate Cell Line. Put plainly: Dual label UROC28/Bcl-2 flow cytometry after SPB treatment. It counts as cell-based, human. The procedure:
Cells were grown to 70-80% confluence at 37° C. and 5% CO2 in T-75 tissue culture plastic flasks. SPB stock solution was added to final concentrations of 0.5, 5.0, 10.0, and 25.0 mM in appropriate fresh media to the cell cultures. Cells were incubated at 37° C. and 5% CO2 for 72 hours. Attached cells were then harvested using a solution of 0.05% trypsin and 0.53 mM EDTA (Invitrogen Corp.). Attached cells were then pooled with any the detached cells and washed with PBS pH 7.2. Cell numbers and percent viability were determined using Trypan blue dye exclusion and a hemacytometer. At the time of their use in an experiment the viability was usually about 85% for untreated cells and a range of about 15-70% for treated cells, with the lower viabilities found at higher SPB concentrations (Thompson C, 1995; Cory et al., 1998; van Engeland et al., 1996).
UC28(C) is 2.14 mg/ml rabbit polyclonal aliquot directed against the inventors' UC28 patented biomarker developed by UCor R&D gene discovery program. The Antibody was produced against a twenty amino acid (AA) synthetic peptide from the predicted AA sequence (AA 21-37) UCor, Inc. 840 Research Parkway Oklahoma City, Okla. 73104.
Goat Anti-Rabbit CY5 polyclonal Fluorchrome was used as the secondary conjugate for UC28 C rabbit polyclonal antibody and a background control for UC28 C polyclonal. Vendor is Jackson ImmunoResearch Laboratories, Inc. 872 West Baltimore Pike, P.O. Box 9 West Grove, Pa. 19390.
Bc12 IgG1 kappa-FITC isomer 1 is a purified monoclonal mouse specific for Bc1-2 protein. Vendor is Dalco Corporation 6392 Via Real, Carpinteria, Calif. 93013 USA.
MsIgG1 kappa-FITC isomer 1 is a purified isotype specific control for Bc1-2 monoclonal antibody. Vendor is Dako Corporation 6392 Via Real, Carpinteria, Calif. 93013 USA.
Cytofix/Cytoperm™ ICit enables fixation and permeabilization of cells prior to staining with fluorochrome-conjugated antibodies. Vendor is BD-PharMingen, 10975 Torreyana Road, San Diego, Calif. 92121-1106.
A Coulter Elite engineered with a triple laser system was used to analyze all samples. Coulter control beads were used to align lasers for the dual label testing of cell samples. Laser alignment was required for both the Argon (488 nm line) laser and HeNe (633 nm line) laser. These alignments were performed prior to all measurements with the Argon laser (488 nm line) using fluorophores for FITC, RPE, PI and the HeNe laser (633 nm line) for the Cy5 fluorophores being used for the experiments described below. The histographs, voltage settings, gates, color compensation, and pressures were established prior to all sample processing.
(a) Tissue culture cells (MLC-SV40, LNCaP and C 4-2B) were aliquoted at concentration of 1×10^6 per teach 12×75 mm polystyrene tube. […]

`O=C([O-])CCCc1ccccc1.[Na+]` [SPB, 4-Phenylbutyric Acid, Sodium Salt]: for the setting “5.0 mM SPB”, the “Total Bcl-2” value is reported as 23.8% and the “Total UC2BC” value turned out to be 87.7%. Further, where the note is “10 mM SPB”, the “Total Bcl-2” value was found to be 15.6% and the “Total UC2BC” value turned out to be 83.0%.
